{"source": "paper PMC7546004", "about": "“Targeting BCL10 by small peptides for the treatment of B cell lymphoma” (Theranostics, 2020)", "key": {"[1]": {"tested_on": "TMD8 cell xenograft tumors", "assay": "Mouse xenograft model", "type": "in vivo, NCG mice", "method": "(§1) Mouse xenograft experiments:\n(§2) Six-week-old female NOD prkdc-/- IL-2Rg-/- (NCG) mice purchased from GemPharmatech Co., Lt d we re raised in a SPF- level Laboratory Animal Room. Low -passage 5x106 human TMD8, SU-DHL- 6 or 1x10^7 OCl-LY1 cells at 100μl were premixed with 100μl Matrigel (Corning Biocoat, cat. # 354234) and inoculated subcutaneously into the right flank of mice. When tumors reached an average size of 150 mm3, mice were randomly assigned into treatment groups (10 mg /kg DRI-BCL10- P4) or control groups (5 mg /kg BCL10- Ctl). Peptides were reconstituted in 5% DMSO/PBS and administered by i.v. injection. Tumor volumes were monitored by a digital caliper every other day and calculated using the formula: (smallest diameter2 x largest diameter)/2. Mice were weighed every day and sacrificed at the end of the treatment. T umors and main organs were harvested and we i ghte d at the moment of death. All animal experiments were approved by the Animal Institute Committee of Changhai Hospital, the Second Military Medical University.\n(§3) Immunohistochemistry (IHC)\n(§4) Formalin-fixed paraffin -embedded tumor xenografts were sectioned, dewaxed and submitted to antigen retrieval. The anti- Ki67 (proteintech, 27309-1) antibody was used at a 1:500 dilution.\n(§5) Biotin-conjugated secondary antibodies (MXB biotechnologies, KIT-9710) were used. Then avidin/biotin peroxidase (MXB biotechnologies, KIT-9710) was applied to the slides. Color was developed with diaminobenzoate chromogen peroxidase substrate (MXB biotechnologies, MAX007TM) and counterstained with […] (MXB biotechnologies, MAX007TM). Pictures were obtained using NanoZoomer-S60 microscope ([…]).\n(§6) Terminal deoxynucleotidyl transferase dUTP nick end labeling, TUNEL assay was used to detect apoptotic DNA fragmentation. All the experiments were performed according to the kit (KeyGEN Biotech, KGA703) instructions. Briefly, formalin-fixed paraff i n-embedded xenografted tumors were deparaffinized and pre-treated with trypsin to expose DNA. Endogenous peroxidase was quenched using 3% hydrogen peroxide followed by incubation with TdT enzyme for 1 hour. Then, antidigoxigenin-peroxidase was applied to the slides. Color was developed with diaminobenzoate chromogen peroxidase substrate and counterstained with methyl green. Pictures were obtained using NanoZoomer-S60 microscope ([…])."}, "[2]": {"tested_on": "OCI-LY1 cell xenograft tumors", "assay": "Mouse xenograft model", "type": "in vivo, NCG mice", "details": "DRI-BCL10-P4 10 mg/kg or BCL10-Ctl 5 mg/kg daily, i.v.; Figure S8A-C", "method": "as §1, §2, §3, §4, §5, §6"}, "[3]": {"molecular_target": "T1, MBP-BCL10 (Homo sapiens, UniProt O95999)", "T1 construct": "made in house", "T1 sequence (O95999 whole entry)": "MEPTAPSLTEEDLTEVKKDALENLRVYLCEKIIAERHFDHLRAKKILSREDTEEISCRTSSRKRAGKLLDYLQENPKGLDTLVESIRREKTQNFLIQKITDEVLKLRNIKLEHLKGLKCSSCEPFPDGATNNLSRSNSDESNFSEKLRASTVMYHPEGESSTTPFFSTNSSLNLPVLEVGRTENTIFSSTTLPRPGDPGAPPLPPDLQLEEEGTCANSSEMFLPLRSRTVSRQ", "assay": "Co-immunoprecipitation of peptide with MBP-BCL10", "type": "binding", "details": "biotinylated peptide, streptavidin beads, 4 °C", "method": "(§7) MBP-Bcl10 was expressed and purified as previously described {Qiao, 2013 #85}. Purified\n(§8) mM NaCl, 1% NP-40) at 4 °C for 1 hour, followed by addition of 5% BSA blocked S t re ptavidin (SAV)\n(§9) Immunoprecipitant were washed 5 times with IP buffer and separated by SDS-PA G E . […]\n(§10) hActin- F: 5’-[…]-3’\n(§11) hIL6-R: 5’- […]-3 ’.\n(§12) hBcl10-F: 5’-[…] TAGAAA-3’"}, "[4]": {"tested_on": "NF-κB signalling pathway", "assay": "Western blot of NF-κB pathway proteins (IKKβ, p-IKKβ, IκBα, p-IκBα)", "type": "cell-based", "details": "12 h, indicated concentrations; Figure 6E", "method": "Cell pellets were lysed in RIPA buffer (50 mM Tris at pH 8.0, 150 mM NaCl, 1% NP-40, 1 mM EDTA, and 1X protease inhibitor cocktail) or RIPA buffer containing 0.1% SDS. Equal amounts of protein extracts were separated by SDS-PAGE and blotted onto polyvinylidene difluoride (PVDF) membranes. The following Antibodies were purchased and used in this study: anti-IκBα (10268-1), anti-IKKβ (20979-1), anti-Bcl2 (12789-1-AP), anti-GAPDH (10494-1-AP), and anti-β-actin (66009-1-AP) were from Proteintech; anti-p-IκBα (2859S), anti-p-IKKβ (2697S), anti-RelB (10544), anti-α-tubulin (5335), anti-PARP (9532S), and anti-CARMA1 (4435) were from Cell Signaling Technology; anti-β-actin (A1978) was from Sigma; anti-Bcl10 (A1106) was from ABclonal; anti-A20 (sc-166692), anti-CYLD (sc-74435), and anti-MALT1 (sc-46677) were from Santa Cruz; anti-HOIL-1 (HPA024185) was from Atlas Antibodies; and anti-Myc (ab9106) was from Abcam."}, "[5]": {"tested_on": "HBL1 cells", "assay": "Intracellular pharmacokinetics, BCL10-P4 versus DRI-BCL10-P4", "method": "as §7, §8, §9, §10, §11, §12\nhBcl10-R: 5’-[…] T-3’\n1x105 HBL1, TMD8, OCl-LY 1 , OCl-LY 1 , U2932, MD901 or RCK8 cells were seeded in 12-well plate\nwa sh e d and lysed with RIPA buffer.\nimmunoblotting with Streptavidin (Cell signaling, cat. #3999S). […]"}, "[6]": {"tested_on": "TMD8 and SU-DHL4 cells", "assay": "Cell cycle analysis (PI, flow cytometry)", "type": "cell-based", "details": "5 μM or 10 μM, 24 h; two independent experiments", "method": "For cell cycle analysis, cells were washed twice with cold PBS and fixed in 70% ethanol overnight at 4°C. Fixed cells were collected at 1800 rpm for 10 min and stained with PBS containing PI and DNase-free RNase A (Sigma-Aldrich) for 1h at room temperature in the dark. DNA content was measured by BD LSRII flow cytometer and data were analyzed in FloJo. […]\nCommittee of Changhai Hospital, the Second Military Medical University.\nas §3, §4, §5"}, "[7]": {"tested_on": "TMD8 cells", "type": "cell-based, human", "source_text": "GraphPad Prism software was used to determine GI50 values."}, "[8]": {"details": "TMD8 xenograft, 10 mg/kg, compared with control group"}}, "note": "Square brackets hold non-standard residues; d marks the D form. Peptide text beside a SMILES is read from it.", "data": [{"smiles": "CC[C@@H](C)[C@@H](NC(=O)[C@@H](CCCCN)NC(=O)[C@H](NC(=O)[C@@H](Cc1c[nH]c2ccccc12)NC(=O)[C@@H](Cc1ccccc1)NC(=O)[C@@H](CCC(N)=O)NC(=O)[C@@H](CC(N)=O)NC(=O)[C@@H](CCCNC(=N)N)NC(=O)[C@@H](CCCNC(=N)N)NC(=O)[C@@H](CCSC)NC(=O)[C@@H](CCCCN)NC(=O)[C@@H](Cc1c[nH]c2ccccc12)NC(=O)[C@@H](CCCCN)NC(=O)[C@@H](CCCCN)NC(=O)[C@@H](CCCNC(=N)N)NC(=O)[C@H](NC(=O)[C@@H](CO)NC(=O)[C@@H](CO)NC(=O)[C@@H](CCCNC(=N)N)NC(=O)[C@@H](CCCCN)NC(=O)[C@@H](CCCNC(=N)N)NC(=O)[C@@H](C)NC(=O)CNC(=O)[C@@H](CCCCN)NC(=O)[C@@H](CC(C)C)NC(=O)[C@@H](CC(C)C)NC(=O)[C@@H](CC(=O)O)NC(=O)[C@@H](Cc1ccc(O)cc1)NC(=O)[C@@H](CC(C)C)NC(=O)[C@@H](CCC(N)=O)NC(=O)[C@H](N)CCC(=O)O)[C@H](C)O)[C@H](C)CC)C(=O)N[C@H](CCC(N)=O)C(=O)N[C@H](CCCNC(=N)N)C(=O)N[C@H](CC(=O)O)C(=O)O", "note": "[DRI-BCL10-P4] (H-[dE][dQ][dL][dY][dD][dL][dL][dK]G[dA][dR][dK][dR][dS][dS][dT][dR][dK][dK][dW][dK][dM][dR][dR][dN][dQ][dF][dW][dI][dK][dI][dQ][dR][dD]-OH)", "values": [{"measurement": "growth of TMD8 cell xenograft tumors", "setting": "[1]; DRI-BCL10-P4 10 mg/kg Q.d. or BCL10-Ctl 5 mg/kg Q.d., i.v., n=8, p=0.013, Mann-Whitney U test", "value": "significantly inhibited the growth"}, {"measurement": "apoptosis rate in tumor sections (TUNEL staining)", "setting": "[1]; [8]", "value": "significant increase in the apoptosis rate"}, {"measurement": "proliferation in tumor sections (Ki67 staining)", "setting": "[1]; [8]", "value": "significant decrease in the proliferation"}, {"measurement": "growth of OCI-LY1 cell xenograft tumors", "setting": "[2]", "value": "neither peptide significantly suppressed the growth"}, {"measurement": "interaction with MBP-BCL10 (co-immunoprecipitation)", "setting": "[3]", "value": "interacted with BCL10"}, {"measurement": "NF-κB pathway activation in HBL1 and TMD8 cells", "setting": "[4]", "value": "repressed NF-κB pathway activation"}, {"measurement": "NF-κB pathway activation in OCI-LY1 cells", "setting": "[4]", "value": "but not in OCI-LY1 cells"}, {"measurement": "intracellular level after the first 4 h (intracellular stability)", "setting": "[5]", "value": "maintained for a much longer time"}, {"measurement": "uptake by HBL1 cells and level within the first 4 h", "setting": "[5]", "value": "similarly taken up"}, {"measurement": "cell cycle profile of TMD8 and SU-DHL4 cells", "setting": "[6]", "value": "cell cycle arrest"}, {"measurement": "GI50", "setting": "[7]", "value": "11.9 ± 6.2", "unit": "µM"}]}]}
